Measurements published in patent US20240423961A1, “1H-1,2,3-TRIAZOLE-4-CARBOXYLIC ACIDS FOR TREATMENT OF HYPEROXALURIA AND KIDNEY STONES” (CANTERO THERAPEUTICS, INC., priority 2021, published 2024).
Like-named read-outs stand apart in the source and are kept apart here.

Test: Phase 1 SAD/MAD study: plasma pharmacokinetics of Compound 1a (LC-MS-MS, noncompartmental analysis)
Format: in vivo, human
Details: for Cmax / Tmax / half-life / AUC(0-t) / Cmax at 7 days / Tmax at 7 days / AUC(0-inf): human, plasma; for Cmax at 7 days: read-out: Day 7 Cmax; for Tmax at 7 days: read-out: Day 7 Tmax
Description: Pharmacokinetics: Human K2-ethylenediaminetetraacetic acid (K2-EDTA) plasma samples were analyzed for Compound 1a by a validated method over a range of 1.0 to 1000 ng/mL based on the analysis of 100 μL of sample. Human plasma containing Compound 1a and the internal standard, Compound 1a-D4, was extracted using liquid-liquid extraction and analyzed by a Sciex API 4000 LC-MS-MS equipped with an HPLC column. The peak area of the m/z 370.2→298.0 Compound 1a product ion was measured against the peak area of the m/z 374.3→302.4 Compound 1a-D4 internal standard product ion. Quantitation was performed using a weighted 1/x^2 linear least squares regression analysis generated from calibration standards prepared on the day of extraction.
Pharmacokinetic analysis: Pharmacokinetic calculations based on Compound 1a plasma concentrations were performed using noncompartmental analysis in Phoenix WinNonlin (Certara, Princeton, New Jersey). […] Accumulation ratio based on Cmax was calculated as (Cmax,day 7)/(Cmax, day 1).
Subject disposition: Six cohorts of 6 to 8 subjects each (N=up to 48) were administered single doses of 40, 120, 360, 1,000, 2,000, and 3,000 mg of Compound 1a in Part A under fasting conditions. Following a 2-week washout, subjects in the 1,000 mg cohort were administered a second 1,000 mg single dose following a high-fat breakfast. Six cohorts of 8 healthy subjects each were administered multiple doses of 75 mg […] (qd), 125 mg every 12 hours (q12 h), 500 mg q12 h, 500 mg qd, 750 mg qd, and 1,000 mg qd for 7 days in the MAD Part B (FIG. 1).

[1] = oral, 75 mg, MAD 75 mg qd for 7 days, average
[2] = oral, 125 mg, MAD 125 mg q12h for 7 days, average
[3] = oral, 500 mg, MAD 500 mg q12h for 7 days, average
[4] = oral, 500 mg, MAD 500 mg qd for 7 days, average
[5] = oral, 750 mg, MAD 750 mg qd for 7 days, average
[6] = oral, 1000 mg, MAD 1000 mg qd for 7 days, average
[7] = po, 40 mg, SAD 40 mg oral, fasted, average
[8] = po, 120 mg, SAD 120 mg oral, fasted, average
[9] = po, 360 mg, SAD 360 mg oral, fasted, average
[10] = po, 1000 mg, SAD 1,000 mg oral, fasted, average
[11] = po, 1000 mg, SAD 1,000 mg oral, fed, average
[12] = po, 2000 mg, SAD 2,000 mg oral, fasted, average
[13] = po, 3000 mg, SAD 3,000 mg oral, fasted, average

SMILES: O.O=C([O-])c1nn[nH]c1Oc1ccc(-c2ccc(C3CC(F)(F)C3)cc2)cc1.[Na+] [Compound 1a, sodium 5-((4′-(3,3-difluorocyclobutyl)-[1,1′-biphenyl]-4-yl)oxy)-1H-1,2,3-triazole-4-carboxylate monohydrate]
- Cmax (oral, 40 mg, single dose 40 mg, healthy volunteers, geometric mean): 2040 ng/mL
- Tmax (oral, 40 mg, single dose 40 mg, healthy volunteers, geometric mean (geometric CV %), read-out: Tmax): 1.9 h
- half-life (oral, 40 mg, single dose 40 mg, healthy volunteers, geometric mean (geometric CV %), read-out: t1/2 (converted)): 25 h
- AUC(0-t) (oral, 40 mg, single dose 40 mg, healthy volunteers, geometric mean, read-out: AUClast): 13.9 µg·h/mL
- AUC(0-t) (oral, 75 mg, MAD 75 mg qd for 7 days, average, read-out: Day 7 AUC0-24): 23.9 µg·h/mL
- Cmax at 7 days [1]: 3420 ng/mL
- Tmax at 7 days [1]: 2.45 h
- Cmax (oral, 120 mg, single dose 120 mg, healthy volunteers, geometric mean): 5020 ng/mL
- Tmax (oral, 120 mg, single dose 120 mg, healthy volunteers, geometric mean (geometric CV %), read-out: Tmax): 2.3 h
- half-life (oral, 120 mg, single dose 120 mg, healthy volunteers, geometric mean (geometric CV %), read-out: t1/2 (converted)): 22 h
- AUC(0-t) (oral, 120 mg, single dose 120 mg, healthy volunteers, geometric mean, read-out: AUClast): 41 µg·h/mL
- AUC(0-t) (oral, 125 mg, MAD 125 mg q12h for 7 days, average, read-out: Day 7 AUC0-12): 45.6 µg·h/mL
- Cmax at 7 days [2]: 6450 ng/mL
- Tmax at 7 days [2]: 2.04 h
- Cmax (oral, 360 mg, single dose 360 mg, healthy volunteers, geometric mean): 10500 ng/mL
- Tmax (oral, 360 mg, single dose 360 mg, healthy volunteers, geometric mean (geometric CV %), read-out: Tmax): 2.3 h
- half-life (oral, 360 mg, single dose 360 mg, healthy volunteers, geometric mean (geometric CV %), read-out: t1/2 (converted)): 26 h
- AUC(0-t) (oral, 360 mg, single dose 360 mg, healthy volunteers, geometric mean, read-out: AUClast): 83.2 µg·h/mL
- AUC(0-t) (oral, 500 mg, MAD 500 mg q12h for 7 days, average, read-out: Day 7 AUC0-12): 342 µg·h/mL
- Cmax at 7 days [3]: 43800 ng/mL
- Tmax at 7 days [3]: 1.44 h
- AUC(0-t) (oral, 500 mg, MAD 500 mg qd for 7 days, average, read-out: Day 7 AUC0-24): 133 µg·h/mL
- Cmax at 7 days [4]: 17000 ng/mL
- Tmax at 7 days [4]: 2.35 h
- AUC(0-t) (oral, 750 mg, MAD 750 mg qd for 7 days, average, read-out: Day 7 AUC0-24): 214 µg·h/mL
- Cmax at 7 days [5]: 24300 ng/mL
- Tmax at 7 days [5]: 2.62 h
- AUC(0-t) (oral, 1000 mg, MAD 1000 mg qd for 7 days, average, read-out: Day 7 AUC0-24): 303 µg·h/mL
- Cmax at 7 days [6]: 29900 ng/mL
- Tmax at 7 days [6]: 2.18 h
- Cmax (oral, 1000 mg, single dose 1000 mg, healthy volunteers, geometric mean): 17200 ng/mL
- Tmax (oral, 1000 mg, single dose 1000 mg, healthy volunteers, geometric mean (geometric CV %), read-out: Tmax): 2.5 h
- half-life (oral, 1000 mg, single dose 1000 mg, healthy volunteers, geometric mean (geometric CV %), read-out: t1/2 (converted)): 28 h
- AUC(0-t) (oral, 1000 mg, single dose 1000 mg, healthy volunteers, geometric mean, read-out: AUClast): 184 µg·h/mL
- Tmax (oral, 1000 mg, single dose of 1,000 mg, fasted, read-out: average Tmax): 3 h
- half-life (oral, 1000 mg, single dose of 1,000 mg, fasted, read-out: t1/2 (converted)): ~26.8 h
- Tmax (oral, 1000 mg, single dose of 1,000 mg, fed, read-out: average Tmax): 5.9 h
- half-life (oral, 1000 mg, single dose of 1,000 mg, fed, read-out: t1/2 (converted)): ~25.2 h
- Cmax (oral, 2000 mg, single dose 2000 mg, healthy volunteers, geometric mean): 25600 ng/mL
- Tmax (oral, 2000 mg, single dose 2000 mg, healthy volunteers, geometric mean (geometric CV %), read-out: Tmax): 2.9 h
- half-life (oral, 2000 mg, single dose 2000 mg, healthy volunteers, geometric mean (geometric CV %), read-out: t1/2 (converted)): 23 h
- AUC(0-t) (oral, 2000 mg, single dose 2000 mg, healthy volunteers, geometric mean, read-out: AUClast): 312 µg·h/mL
- Cmax (oral, 3000 mg, single dose 3000 mg, healthy volunteers, geometric mean): 22500 ng/mL
- Tmax (oral, 3000 mg, single dose 3000 mg, healthy volunteers, geometric mean (geometric CV %), read-out: Tmax): 2.9 h
- half-life (oral, 3000 mg, single dose 3000 mg, healthy volunteers, geometric mean (geometric CV %), read-out: t1/2 (converted)): 34 h
- AUC(0-t) (oral, 3000 mg, single dose 3000 mg, healthy volunteers, geometric mean, read-out: AUClast): 225 µg·h/mL
- Tmax (oral, single-dose administration of 40 mg to 3,000 mg, read-out: average plasma Tmax values across dose levels): 1.9 to 2.9 h
- half-life (oral, single-dose administration of 40 mg to 3,000 mg, read-out: average t1/2 across dose levels): 21.9 to 33.7 h
- AUC(0-inf) [7]: 14 µg·h/mL
- Cmax [7]: 2040 ng/mL
- AUC(0-t) (po, 40 mg, SAD 40 mg oral, fasted, average, read-out: AUC0-24): 12.1 µg·h/mL
- Tmax (po, 40 mg, SAD 40 mg oral, fasted, average, read-out: Tmax): 1.89 h
- half-life (po, 40 mg, SAD 40 mg oral, fasted, average, read-out: t1/2 (converted)): 24.6 h
- AUC(0-inf) [8]: 41.4 µg·h/mL
- Cmax [8]: 5020 ng/mL
- half-life (po, 120 mg, SAD 120 mg oral, fasted, average, plasma (N = 5), read-out: t1/2 (converted)): 21.9 h
- AUC(0-t) (po, 120 mg, SAD 120 mg oral, fasted, average, read-out: AUC0-24): 36.7 µg·h/mL
- Tmax (po, 120 mg, SAD 120 mg oral, fasted, average, read-out: Tmax): 2.29 h
- AUC(0-inf) [9]: 83.3 µg·h/mL
- Cmax [9]: 10500 ng/mL
- AUC(0-t) (po, 360 mg, SAD 360 mg oral, fasted, average, read-out: AUC0-24): 74.1 µg·h/mL
- Tmax (po, 360 mg, SAD 360 mg oral, fasted, average, read-out: Tmax): 2.28 h
- half-life (po, 360 mg, SAD 360 mg oral, fasted, average, read-out: t1/2 (converted)): 25.9 h
- AUC(0-inf) [10]: 214 µg·h/mL
- Cmax [10]: 19500 ng/mL
- AUC(0-t) (po, 1000 mg, SAD 1,000 mg oral, fasted, average, read-out: AUC0-24): 174 µg·h/mL
- Tmax (po, 1000 mg, SAD 1,000 mg oral, fasted, average, read-out: Tmax): 3 h
- half-life (po, 1000 mg, SAD 1,000 mg oral, fasted, average, read-out: t1/2 (converted)): 26.8 h
- AUC(0-inf) [11]: 237 µg·h/mL
- Cmax [11]: 14700 ng/mL
- AUC(0-t) (po, 1000 mg, SAD 1,000 mg oral, fed, average, read-out: AUC0-24): 180 µg·h/mL
- Tmax (po, 1000 mg, SAD 1,000 mg oral, fed, average, read-out: Tmax): 5.86 h
- half-life (po, 1000 mg, SAD 1,000 mg oral, fed, average, read-out: t1/2 (converted)): 25.2 h
- AUC(0-inf) [12]: 312 µg·h/mL
- Cmax [12]: 25600 ng/mL
- AUC(0-t) (po, 2000 mg, SAD 2,000 mg oral, fasted, average, read-out: AUC0-24): 253 µg·h/mL
- Tmax (po, 2000 mg, SAD 2,000 mg oral, fasted, average, read-out: Tmax): 2.94 h
- half-life (po, 2000 mg, SAD 2,000 mg oral, fasted, average, read-out: t1/2 (converted)): 23.4 h
- AUC(0-inf) [13]: 226 µg·h/mL
- Cmax [13]: 22500 ng/mL
- AUC(0-t) (po, 3000 mg, SAD 3,000 mg oral, fasted, average, read-out: AUC0-24): 184 µg·h/mL
- Tmax (po, 3000 mg, SAD 3,000 mg oral, fasted, average, read-out: Tmax): 2.94 h
- half-life (po, 3000 mg, SAD 3,000 mg oral, fasted, average, read-out: t1/2 (converted)): 33.7 h
- Overall exposure, fed versus fasted (food effect) (single dose of 1,000 mg, same cohort, 2-week washout): slightly lower under fed than under fasted conditions
